Results on one compound are retold here after patent US12239643B2, “Therapeutic agent for inflammatory diseases, autoimmune diseases, fibrotic diseases, and cancer diseases” (MEIJI SEIKA PHARMA CO., LTD., priority 2018, dated 2025).

The experiment relates to bleomycin-induced pulmonary fibrosis, C57BL/6J mice. Kind of experiment: Mouse bleomycin model. It counts as in vivo. The conditions noted are these: oral once a day for 14 days, day 21 after BLM administration, compared with nintedanib. The protocol: Evaluation was carried out using female C57BL/6J mice (7 weeks of age). Bleomycin (BLM) at a concentration of 2 mg/kg was administered oropharyngeally under anesthesia to induce pulmonary fibrosis. Six days after BLM administration, the group was divided into experimental groups so as to achieve a uniform weight loss rate from the BLM administration day. The test compound dissolved or suspended in 0.5% w/v methylcellulose (0.5% MC) was orally administered (10 μL/g) at a concentration of 10 to 100 mg/kg once a day for 14 days from day 7 after the administration of BLM. On day 21 after BLM administration, blood was collected under anesthesia, and the lungs were fixed with a 10% neutral buffered formalin solution and treated for histological examination. To evaluate the degree of fibrosis, the concentration of serum surfactant protein D (SP-D) was measured by the ELISA method.

In the case of `CC(C)(O)C(F)(F)Oc1ccc(-c2nccs2)c2oc(N3CC4CC(C3)N4)nc12` [Example 248, 1-((2-(3,6-Diazabicyclo[3.1.1]heptan-3-yl)-7-(thiazol-2-yl)benzo[d]oxazol-4-yl)oxy)-1,1-difluoro-2-methylpropan-2-ol], the pulmonary fibrosis score result is recorded as “equal to or lower than those of nintedanib” and the “serum SP-D concentration” value is recorded as “equal to or lower than those of nintedanib”.
